Laboratory results: patent publication EP3431468B1, “USE OF ADIPONECTIN RECEPTOR AGONISTS IN TREATING DEPRESSION, ANXIETY AND NEUROINFLAMMATION” (CENTRE NATIONAL DE LA RECHERCHE SCIENTIFIQUE, priority 2017, dated 2019)

Experiments:
[1] = system: Kyn pathway; assay: Kynurenine pathway metabolites measurement in plasma; type: in vivo; conditions: long-term corticosterone-treated mice, chronic AdipoRon treatment
Description: Data were digitized at 5-10 kHz using a Digidata interface coupled to a microcomputer running pClamp 9 (Axon Instruments, USA). Current-clamp data were digitized at 0.5 kHz using the same interface. Potentials were digitally filtered at 1-3 kHz. Average data were expressed as mean ± SEM, n = number of neurons, N = number of mice. • Western blot analysis - Total proteins were extracted from mouse hypothalamus by homogenization in lysis buffer (50mM Tris-HCl, pH7.5, 150mM NaCl, 5mM EDTA containing 0.5% Triton X-100 and 0.5% sodium deoxycholate with a coktail of protease and phosphatase inhibitors). Equal amounts of total proteins (50µg) determined by the Bradford method (BioRad) were separated onto 12% SDS-PAGE, then transferred on nitrocellulose membrane (Schleicher & Schuell, Dassel, Germany). […] IFNγ, IL1β, IL6, and TNFα, levels were measured using an electro-chemo-luminescence (ECL)-based assay (U-plex, MesoScaleDiscovery) following manufacturer instructions. Results were standardized according to the protein concentration of each sample determined by the Bradford method. • Kynurenine pathway metabolites measurement - Plasma levels of L-kynurenin (L-Kyn), tryptophan (Trp), kynurenin acid (Kyn ac), 5-HT and 5-HIAA were determined as follows: 25µl of plasma was deproteinated with 150µl of cold MeOH. […]

[2] = system: wt and depression-like mouse models; assay: Forced Swimming test (FST), acute administration; type: in vivo, mice
[3] = biological target: T1, AdipoR2 (Homo sapiens, UniProt Q86V24); conditions: Okada-Iwabu, Yamauchi et al. 2013; cited from earlier work
T1 sequence (Q86V24 1-386): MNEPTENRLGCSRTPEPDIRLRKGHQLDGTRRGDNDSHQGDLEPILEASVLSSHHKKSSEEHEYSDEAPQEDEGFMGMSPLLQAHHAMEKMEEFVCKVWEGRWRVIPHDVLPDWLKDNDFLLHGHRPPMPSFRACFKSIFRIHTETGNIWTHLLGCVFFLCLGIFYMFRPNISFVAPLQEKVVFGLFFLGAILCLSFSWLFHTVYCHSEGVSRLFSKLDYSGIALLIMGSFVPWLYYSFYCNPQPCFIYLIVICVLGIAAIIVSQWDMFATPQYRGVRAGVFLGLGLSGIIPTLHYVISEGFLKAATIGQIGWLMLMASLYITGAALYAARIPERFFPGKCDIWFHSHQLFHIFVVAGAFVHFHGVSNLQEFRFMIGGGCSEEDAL

Question: Which results are given for O=C(COc1ccc(C(=O)c2ccccc2)cc1)NC1CCN(Cc2ccccc2)CC1 [AdipoRon, 2-(4-Benzoylphenoxy)-N-[1-(phenylmethyl)-4-piperidinyl]-acetamide]?
Answer: Kyn ac:L-Kyn ratio [1]: restoring the physiological; L-Kyn:Trp ratio [1]: restoring the physiological; immobility time in the FST ([2]; ApN-/- mice, 0.5mg/kg ip, one-hour post injection): remained inefficient; immobility time in the FST ([2]; ApN-/- mice, 1mg/kg per os (gavage), one-hour before FST): reduced the immobility time; immobility time in the FST ([2]; ApN-/- mice, 5mg/kg ip, one-hour post injection): decreased the immobility time; immobility time in the FST ([2]; C57BL/6J wt mice, 1mg/kg ip, 1h post-injection, vs vehicle): decreased the immobility time; immobility time in the FST ([2]; C57BL/6J wt mice, 1mg/kg ip, 3h post-injection, vs vehicle): no significant effect; immobility time in the FST ([2]; corticosterone-treated mice, 0.5mg/kg ip, one-hour post injection): significantly reduced the immobility time; immobility time in the FST ([2]; corticosterone-treated mice, 5mg/kg ip, one-hour post injection): decreased the immobility time; immobility time in the FST ([2]; wt mice, 0.5mg/kg ip, one-hour post injection): significantly reduced the immobility time; immobility time in the FST ([2]; wt mice, 1mg/kg per os (gavage), one-hour before FST): reduced the immobility time; immobility time in the FST ([2]; wt mice, 5mg/kg ip, one-hour post injection): decreased the immobility time; binding to adiponectin receptor [3]: bind
